For assay [1], the system named is ethylene biosynthesis in tobacco leaves. The assay is described as follows: Induction of ethylene biosynthesis in agroinfiltrated tobacco leaf explants. The following applies: for ethylene release induced by flg22: flg22, 2 h, compared with EFR-expressing explants as negative controls. It counts as cell-based, Nicotiana tabacum. The procedure:
F) Induction of ethylene biosynthesis in agroinfiltrated tobacco leaves expressing the fluorescent EFR, FLS2, TMC, eJMC and eJMC^Y859A. NC: negative control, represented by agroinfiltrated leaf tissues expressing fluorescent EFR or FLS2 and elicited with flg22 or elfl8, respectively. Results are averages±standard error (n=3).
Excised infiltrated leaf sectors were stimulated for 2 h with water or the elicitor ([…] and 100 μg/ml for OGs). Values are means±s.e.m. (N=3).
E) Induction of ethylene biosynthesis in agroinfiltrated tobacco leaves expressing EFR, WAK1, WEG and EWAK. Each construct was stimulated for 2 h with elfl8 (10 μM) or OGs (100 μg/mL). NC: negative control, represented by agroinfiltrated leaf tissue expressing EFR or FLS2 when OGs or elfl8, respectively, were used for elicitation. Error bars indicate the standard error of three independent replicates.
(A) Induction of ethylene biosynthesis in agroinfiltrated tobacco explants expressing EFR, WAK1, WEG and EWAK. […] Agroinfiltrated leaf tissues expressing EFR or WEG and elicited with OGs or elfl8 respectively, represented our negative control. Values are means±s.e.m. (N=3). (B) Elicitor-induced gene expression in untransformed Col-0 and Col-0 efr plants, and in transgenic Arabidopsis Col-0 efr plants stably expressing WEG. Accumulation of At3g22270 and At4g37640 transcripts was analysed by semi-quantitative PCR, using the UBQ5 gene for normalization. Adult leaves were syringe-infiltrated with water, OGs (25 μg/ml) or elfl8 (10 μM) for 3 h. The experiment was repeated three times with similar results. The same experiment was performed in a second independent transgenic line expressing WEG with similar results.
Approximately 150 mg of tobacco agroinfiltrated leaf were cut in small slices and extensively washed with sterile distilled water. The explants were placed in sealed 10 mL flasks containing 2 mL of sterile water alone or supplemented with 100 mg L^−1 OGs, or 1 μM flg22 or 10 μM elfl8. 450 μl headspace samples were withdrawn from the vial after 2 h treatment and analyzed by gas chromatography-mass spectrometry using an Agilent 6850A gas chromatograph coupled to a 5973N quadrupole mass selective detector (Agilent Technologies, Palo Alto, Calif., USA). Chromatographic separations were carried out an HP Plot-Q fused-silica capillary column (30 m×0.32 mm i.d.) coated with polystyrene-divinylbenzene (film thickness 0.20 μm) as stationary phase. Injection mode: splitless at a temperature of 220° C. The initial temperature of the oven was held at 50° C. for 8 min then ramped to 220° C. at a rate of 15° C./min and held for 5 min. Helium was used as carrier gas at a constant flow of 1.0 ml/min. Mass spectra were collected both in full scan and in SIM mode monitoring the ions m/z m/z 26, m/z 27 and m/z 28 (ionization energy 70 eV; ion source 280° C.; ion source vacuum 10^−5 Torr).

The test system of assay [2] is Arabidopsis ecotype Wassilewskija (Ws-0) leaves. The assay is described as follows: H2O2 accumulation (DAB staining) and callose deposition (aniline blue) in stably transformed Arabidopsis Ws-0. Format: cell-based, Arabidopsis thaliana. The following applies: flg22 1 μM, 1 h, stably transformed Ws-0 plants. The procedure:
A) Histochemical analysis of defense responses upon 1 h of treatment with H2O, flg22 (1 μM) or elfl8 (10 μM).
3,3′-diaminobenzidine (DAB) staining, callose deposition and gene resistance analysis were assayed as described (Galletti et al., 2008). For measuring active oxygen species released by tobacco agroinfiltrated plants after elicitor treatment, the authors used a modified luminol-dependent assay (Gomez et al., 1999). Slices, corresponding to approximately 30 mg fresh weight, were transferred to assay tubes containing 1 μM flg22 or 10 μM elfl8 in aqueous solution supplied with 40 μM luminol (SIGMA). Chemo-luminescence was measured in a liquid scintillation counter (LS-6500, Beckman) after 5 and 15 min upon addition of elicitors.
Fluorescent eJMC and FLS2 were also stably expressed in transgenic Arabidopsis ecotype Wassilewskija (Ws-0), which carries EFR but lacks a flg22 perception system (Gomez-Gomez et al., 1999, Bauer et al., 2001). Transformed T1 plants expressing the proteins, named eJMC plants and FLS2 plants, respectively, were selected by confocal microscopy analysis of adult rosette leaves. […] Fluorescence was detected only in adult rosette leaves, likely due to a low expression level of the receptor at the different developmental stages.

Assay [3] deals with Agrobacterium tumefaciens GV3101. The assay is described as follows: Growth of Agrobacterium in N. tabacum tissues transiently expressing receptor proteins. It counts as in vivo. The following applies: 24 h after inoculation, tobacco tissues expressing the receptor. The procedure: F) Growth of Agrobacterium in N. tabacum tissues transiently expressing receptor proteins. Tobacco leaves were infiltrated with Agrobacterium expressing the indicated receptors and the number of Agrobacterium colony-forming units (c.f.u.) in the tissues was analyzed soon after infiltration (white bars) and 24 h (gray bars). EFR and eJMC were used as positive and negative controls, respectively. For each receptor, three samples were analyzed in five independent experiments. *, p<0.005.
(A) Growth of A. tumefaciens in N. tabacum tissues transiently expressing receptor proteins. Tobacco leaves were infiltrated with Agrobacterium carrying the indicated receptor constructs and the number of Agrobacterium colony-forming units (c.f.u.) in the tissues was analyzed immediately after infiltration (white bars) and after 24 h (gray bars). EFR and eJMC were used as positive and negative controls, respectively. For each receptor, three samples were analyzed in five independent experiments. Asterisks indicate statistically significant differences against control (Col-0 for WAK1 plants and Col-0 efr for WEG and EWAK plants). (B) Lesion development in Arabidopsis wild type (Col-0) and mutant Col-0 efr plants and in transgenic plants expressing WAK1, WEG and EWAK plants inoculated with B. cinerea at 48 h post-inoculation. Values are means±s.e.m. of at least 16 lesions. The same experiment was performed in a second independent transgenic line expressing WAK1 with similar results. Asterisks indicate statistically significant differences against control (Col-0 for WAK1 plants and Col-0 efr for WEG and EWAK plants).
Agrobacterium tumefaciens GV3101 strain infections was performed as described in Katagiri et al., (2002) and using a concentration of Agrobacterium corresponding at an OD600 of 1.0 in 10 mM MgCl2 and 600 μM acetosyringone. After 24 h of infiltration, serial dilution of Agrobacterium colonies were deposited on LB agar supplemented with gentamycin and rifampicin and grown for 2-3 days at 28° C. in the dark. At least 5 independent plants and 3 different leaves by plant, were used per experiment. Pectobacterium carotovorum subsp. carotovorum infections Pectobacterium carotovorum subsp. carotovorum (formely Erwinia carotovora; Gardan et al., 2003) (strain DMSZ 30169) was obtained from DSMZ GmbH (Germany). A liquid colture using 10 ml LB medium was prepared. After 16 h of growth at 28° C. on rotary shaker at 250 rpm, bacterial cells were harvested by centrifugation and the pellet was resuspended in 50 mM potassium phosphate buffer pH 7.0 corresponding to 5×10^7 CFU/ml.

“Also recorded” adds a separate entry of the source.

As to FLS2 [reference compound], the “ethylene release induced by flg22” value in assay [1] is recorded as “only a weak response”. Besides, in assay [2], the “H2O2 production induced by flg22” value is “induced” and the “callose deposition induced by flg22” value was “induced”.
As to “eJMC: chimera (Arg806FLS2-Val650EFR): LRR and eJM domains of FLS2 fused upstream of TM, iJM and kinase domains of EFR, GFP-fused”, the “ethylene accumulation upon stimulation with elfl8” value in assay [1] (elfl8 10 μM, 2 h) is on record as “did not”. In addition, the “ethylene release induced by flg22” value in assay [1] is given as “significantly higher”. In assay [2], the “H2O2 production induced by flg22” value is given as “induced” and the “callose deposition induced by flg22” value was “induced”. In addition, the “effect on the number of living Agrobacterium cells” value in assay [3] is reported as “no significant effect; also recorded: No significant change”.

B1: WEG: chimeric receptor: WAK1 ectodomain fused to the TM-iJM-kinase portion of EFR, GFP-fused (protein)
chain: QHQPGENCQNKCGNITIEYPFGISSGCYYPGNESFSITCKEDRPHVLSDIEVANFNHSGQLQVLLNRSSTCYDEQGKKTEEDSSFTLENLSLSANNKLTAVGCNALSLLDTFGMQNYSTACLSLCDSPPEADGECNGRGCCRVDVSAPLDSYTFETTSGRIKHMTSFHDFSPCTYAFLVEDDKFNFSSTEDLLNLRNVMRFPVLLDWSVGNQTCEQVGSTSICGGNSTCLDSTPRNGYICRCNEGFDGNPYLSAGCQDVNECTTSSTIHRHNCSDPKTCRNKVGGFYCKCQSGYRLDTTTMSCKRKEVVSGICIGIASLLLIIIVASLCWFMKRKKKNNASDGNPSDSTTLGMFHEKVSYEELHSATSRFSSTNLIGSGNFGNVFKGLLGPENKLVAVKVLNLLKHGATKSFMAECETFKGIRHRNLVKLITVCSSLDSEGNDFRALVYEFMPKGSLDMWLQLEDLERVNDHSRSLTPAEKLNIAIDVASALEYLHVHCHDPVAHCDIKPSNILLDDDLTAHVSDFGLAQLLYKYDRESFLNQFSSAGVRGTIGYAAPEYGMGGQPSIQGDVYSFGILLLEMFSGKKPTDESFAGDYNLHSYTKSILSGCTSSGGSNAIDEGLRLVLQVGIKCSEEYPRDRMRTDEAVRELISIRSKFFSSKTTITESPRDAPQSSPQEWMLNTDMHTM
modifications: left off: large carriers
With B1, the “ethylene accumulation induced by OGs relative to negative control” value in assay [1] (OGs 100 μg/mL, 2 h, negative control OG-stimulated EFR-expressing tissues) was 2.4 times. The “effect on the number of living Agrobacterium cells” value in assay [3] was “no significant effect; also recorded: No significant change”.

B2: EFR: Arabidopsis LRR receptor kinase Elongation Factor Tu Receptor (AT5G20480); GFP-fused control (protein)
chain: RFSNETDMQALLEFKSQVSENNKREVLASWNHSSPFCNWIGVTCGRRRERVISLNLGGFKLTGVISPSIGNLSFLRLLNLADNSFGSTIPQKVGRLFRLQYLNMSYNLLEGRIPSSLSNCSRLSTVDLSSNHLGHGVPSELGSLSKLAILDLSKNNLTGNFPASLGNLTSLQKLDFAYNQMRGEIPDEVARLTQMVFFQIALNSFSGGFPPALYNISSLESLSLADNSFSGNLRADFGYLLPNLRRLLLGTNQFTGAIPKTLANISSLERFDISSNYLSGSIPLSFGKLRNLWWLGIRNNSLGNNSSSGLEFIGAVANCTQLEYLDVGYNRLGGELPASIANLSTTLTSLFLGQNLISGTIPHDIGNLVSLQELSLETNMLSGELPVSFGKLLNLQVVDLYSNAISGEIPSYFGNMTRLQKLHLNSNSFHGRIPQSLGRCRYLLDLWMDTNRLNGTIPQEILQIPSLAYIDLSNNFLTGHFPEEVGKLELLVGLGASYNKLSGKMPQAIGGCLSMEFLFMQGNSFDGAIPDISRLVSLKNVDFSNNNLSGRIPRYLASLPSLRNLNLSMNKFEGRVPTTGVFRNATAVSVFGNTNICGGVREMQLKPCIVQASPRKRKPLSVRKKVVSGICIGIASLLLIIIVASLCWFMKRKKKNNASDGNPSDSTTLGMFHEKVSYEELHSATSRFSSTNLIGSGNFGNVFKGLLGPENKLVAVKVLNLLKHGATKSFMAECETFKGIRHRNLVKLITVCSSLDSEGNDFRALVYEFMPKGSLDMWLQLEDLERVNDHSRSLTPAEKLNIAIDVASALEYLHVHCHDPVAHCDIKPSNILLDDDLTAHVSDFGLAQLLYKYDRESFLNQFSSAGVRGTIGYAAPEYGMGGQPSIQGDVYSFGILLLEMFSGKKPTDESFAGDYNLHSYTKSILSGCTSSGGSNAIDEGLRLVLQVGIKCSEEYPRDRMRTDEAVRELISIRSKFFSSKTTITESPRDAPQSSPQEWMLNTDMHTM
With B2, the “ethylene accumulation upon stimulation with elfl8” value in assay [1] (elfl8 10 μM, 2 h) was “accumulated ethylene”. The “release of ethylene induced by elfl8 relative to negative control” value in assay [1] (elfl8 10 μM, 2 h, negative control FLS2-expressing explants) was found to be 3.8 times. The “decrease in the number of living Agrobacterium cells” value in assay [3] (p<0.005) is 30%.

The values are drawn from patent US9499823B2, “Constructs expressing chimeric receptors and use thereof for the controlled activation of defence response to pathogens in plants” (priority 2009, dated 2016).
